Like-named read-outs stand apart in the source and are kept apart here.
Columns and labels:
[1] = molecular target: cloned and expressed human PDE10 (Homo sapiens, UniProt Q9Y233); conditions: cited from earlier work; for IC50 / Published IC50s on cloned PDE10, cGMP / Published IC50s on cloned PDE10, cAMP: literature values
PDE10 from 786-O = PDE10 from 786-O (Homo sapiens, UniProt Q9Y233); assay: Inhibition and kinetics of PDE10 from 786-O (pooled fractions of the center peak); type: biochemical; conditions: for IC50: pooled center-peak fractions
Method: (§1) Fractions were pooled from a 786-O profile from the center peak.
as §1
(§2) Protein assays were determined using the Bio-Rad DC Protein Assay. A nonlinear regression to the Michalis-Menten equation in Prism was used to determine the Km and Vmax.
as §2

786-O cells [2] = assay: Apoptosis on 786-O cells (Roche Cell Death Assay); type: cell-based, human; conditions: 48 hours with drug
Method: Testing of PDE10-Inhibiting Compounds for Apoptosis on Renal Carcinoma (786-O) Cells. […] After 24 hours, the media was removed and the same media containing the drug was added to the cells (0.1% DMSO final concentration). After 48 hours, apoptosis was detected using the Roche Cell Death Assay.

786-O cells [3] = type: cell-based; conditions: Homo sapiens, 786-0, 144 h; 6 days with drug, sulforhodamine B
Method: Testing of Neoplastic Cell Growth Inhibition of PDE10-Inhibiting Compounds on Renal Cell Carcinoma (786-O) Cells. […] After 24 hours, the media was removed, and the same media containing the drug was added to the cells (0.1% DMSO final concentration).

[4] = read-out: Published IC50s on cloned PDE10, cAMP, cAMP as substrate
[5] = read-out: Published IC50s on cloned PDE10, cGMP, cGMP as substrate
[6] = read-out: μM IC50s on PDE10 from 786-O, cAMP, cAMP substrate at 0.09 μM, table: N = 2 average, EHNA, Milrinone, Rolipram N = 1
[7] = read-out: μM IC50s on PDE10 from 786-O, cGMP, cGMP substrate at 5.5 μM, table: N = 2 average, EHNA, Milrinone, Rolipram N = 1
[8] = μM IC50s on PDE10 from 786-O, cAMP, cAMP substrate at 0.09 μM, table: N = 2 average, EHNA, Milrinone, Rolipram N = 1
[9] = μM IC50s on PDE10 from 786-O, cGMP, cGMP substrate at 5.5 μM, table: N = 2 average, EHNA, Milrinone, Rolipram N = 1

Sequence of PDE10 from 786-O (Q9Y233 290-1055 limits assumed): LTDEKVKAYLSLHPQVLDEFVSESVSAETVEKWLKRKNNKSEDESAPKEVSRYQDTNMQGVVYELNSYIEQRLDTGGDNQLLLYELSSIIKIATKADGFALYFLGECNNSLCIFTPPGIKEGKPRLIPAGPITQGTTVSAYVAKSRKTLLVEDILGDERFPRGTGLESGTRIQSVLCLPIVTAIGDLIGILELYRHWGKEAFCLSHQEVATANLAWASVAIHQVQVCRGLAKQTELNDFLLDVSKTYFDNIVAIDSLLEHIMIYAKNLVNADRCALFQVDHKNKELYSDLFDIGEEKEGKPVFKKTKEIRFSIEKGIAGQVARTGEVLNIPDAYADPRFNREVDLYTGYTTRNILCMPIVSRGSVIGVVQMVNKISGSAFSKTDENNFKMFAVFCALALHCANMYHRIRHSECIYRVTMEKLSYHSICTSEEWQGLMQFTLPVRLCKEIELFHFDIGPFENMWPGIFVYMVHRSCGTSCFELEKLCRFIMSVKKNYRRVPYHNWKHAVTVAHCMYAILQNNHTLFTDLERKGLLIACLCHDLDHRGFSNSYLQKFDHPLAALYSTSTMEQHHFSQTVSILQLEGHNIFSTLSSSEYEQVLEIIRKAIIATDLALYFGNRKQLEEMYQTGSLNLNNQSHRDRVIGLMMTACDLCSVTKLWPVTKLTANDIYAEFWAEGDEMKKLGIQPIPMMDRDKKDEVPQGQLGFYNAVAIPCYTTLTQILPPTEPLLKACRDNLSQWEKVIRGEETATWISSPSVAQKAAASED
Sequence of cloned and expressed human PDE10 (Q9Y233 1-779 isoform Q9Y233-1): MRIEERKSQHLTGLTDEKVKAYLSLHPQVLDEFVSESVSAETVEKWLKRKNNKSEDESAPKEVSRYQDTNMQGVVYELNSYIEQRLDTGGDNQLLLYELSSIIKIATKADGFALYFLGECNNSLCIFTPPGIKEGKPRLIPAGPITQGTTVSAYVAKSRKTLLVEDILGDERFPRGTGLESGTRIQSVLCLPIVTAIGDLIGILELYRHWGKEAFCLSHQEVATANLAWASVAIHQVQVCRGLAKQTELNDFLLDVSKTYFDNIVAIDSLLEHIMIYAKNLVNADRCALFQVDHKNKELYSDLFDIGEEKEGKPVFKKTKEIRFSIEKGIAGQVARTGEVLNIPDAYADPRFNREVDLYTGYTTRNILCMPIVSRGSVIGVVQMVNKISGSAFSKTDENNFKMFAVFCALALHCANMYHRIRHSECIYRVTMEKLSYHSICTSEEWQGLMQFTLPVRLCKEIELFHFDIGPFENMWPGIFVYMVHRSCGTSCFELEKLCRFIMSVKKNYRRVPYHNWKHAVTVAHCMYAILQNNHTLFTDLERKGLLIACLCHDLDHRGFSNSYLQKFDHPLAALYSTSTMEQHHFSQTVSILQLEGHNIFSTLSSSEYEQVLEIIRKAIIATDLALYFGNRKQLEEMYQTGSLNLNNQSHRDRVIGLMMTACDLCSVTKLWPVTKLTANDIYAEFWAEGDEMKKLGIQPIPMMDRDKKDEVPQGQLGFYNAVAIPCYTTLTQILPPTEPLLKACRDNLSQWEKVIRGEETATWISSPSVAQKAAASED

Compound | IC50 [1, 4] | IC50 [1, 5] | IC50 (PDE10 from 786-O; [6]) | IC50 (PDE10 from 786-O; [7]) | Published IC50s on cloned PDE10, cGMP ([1]; cGMP as substrate) | IC50 (PDE10 from 786-O; [8]) | IC50 (PDE10 from 786-O; [9]) | further results
CCCCCC[C@@H]([C@@H](C)O)n1cnc2c(N)ncnc21 (racemic) [EHNA] | > 100 µM | > 100 µM | 60 µM | 46 µM |  |  |  | 
CC(C)Cn1c(=O)n(C)c(=O)c2[nH]cnc21 [IBMX] | 17 µM | 11 µM | 4.5 µM | 6.3 µM |  |  |  | 
CCCOc1ccccc1-c1nc2nn[nH]c2c(=O)[nH]1 [Zaprinast] |  |  |  |  | 14 µM | 13 µM | 17 µM | 
Nc1nc2c(ncn2[C@@H]2O[C@@H]3COP(=O)(O)O[C@H]3[C@H]2O)c(=O)[nH]1 [cGMP, cyclic 3′,5′-guanosine monophosphate] | 14 µM |  | 5.2 µM |  |  |  |  | Vmax ratio of cGMP/cAMP, cloned and expressed PDE10 ([1]; Fujishige et al. 1999): 2.2; Km ([1]; Fujishige et al. 1999, read-out: Km published for cloned and expressed PDE10): 7.2 µM; Km (PDE10 from 786-O; Michaelis-Menten plot, 30 min at 30° C., FIG. 4, 6, read-out: Km for the 786-O PDE): 6.5 µM; Vmax (PDE10 from 786-O; pooled center-peak fraction): 461 pmol/min/mg; Km (PDE10 from 786-O; pooled fractions 57-75 of PDE10, read-out: Km, average of three values (stdev in parenthesis)): 5.5 µM; Vmax ratio of cGMP/cAMP (PDE10 from 786-O; times higher than Vmax for cAMP): 2.4
Cc1[nH]c(=O)c(C#N)cc1-c1ccncc1 [Milrinone] |  |  |  |  | >100 µM | 84 µM | 103 µM | Published IC50s on cloned PDE10, cAMP ([1]; cAMP as substrate): >100 µM
CCOC(=O)C1=C[C@]2(CC)CCCN3CCc4c(n1c1ccccc41)[C@@H]32 [Vinpocetine] |  |  |  |  | 73 µM | 38 µM | 45 µM | Published IC50s on cloned PDE10, cAMP ([1]; cAMP as substrate): 77 µM
CC1=C(CC(=O)O)c2cc(F)ccc2/C1=C\c1ccc(S(C)(=O)=O)cc1 [Exisulind, exisulind, reference compound] |  |  |  |  |  |  |  | IC50 (PDE10 from 786-O; IC50 on PDE10 from 786-O (inhibition of cGMP PDE activity), FIG. 8, 9): 134 µM; Induction of apoptosis in the 786-O cells (786-O cells [2]): did not show significant induction of apoptosis; IC50 (786-O cells [3]): 273 µM
COc1cc(/C=C2/C(C)=C(CC(=O)NCc3ccccc3)c3cc(F)ccc32)cc(OC)c1OC [Compound A, 1 H-indene-3-acetamide, 5-fluoro-2-methyl-N-(phenylmethyl)-1-[(3,4,5-trimethoxyphenyl)methylene]-, (1Z)] |  |  |  |  |  |  |  | IC50 (PDE10 from 786-O; IC50 on PDE10 from 786-O (inhibition of cGMP PDE activity), FIG. 10): 0.031 µM; IC50 (786-O cells [2]; Homo sapiens, 786-0, read-out: IC50 for induction of apoptosis in the 786-O cell line): 0.071 µM; IC50 (786-O cells [3]): 0.03 µM
O=C(O)C1CCN(c2nc(NCc3ccc4c(c3)OCO4)c3cc(Cl)ccc3n2)CC1 [Example E4021] | 7.2 µM | 4.2 µM | 2.8 µM | 3.2 µM |  |  |  | 

— patent US6538029B1, “Methods for treatment of renal cell carcinoma” (Cell Pathways, priority 2002, dated 2003)
